This is an account of results in patent US11999699B2, “Substituted pyrazole amides” (GRUENENTHAL GMBH, priority 2021, dated 2024).

The target in this assay is T1, human NaV1.8 (Homo sapiens, UniProt Q9Y5Y9).
T1 construct: The following NaV1.8 recombinant cell line was used for recordings: HEK-NaV1.8 (NM 006514.1); expressed in transfected cells; host or cells: HEK (recombinant cell line HEK-NaV1.8)
As to the kind of experiment: Electrophysiology: automated whole-cell voltage-clamp (patch clamp, Qube384) recordings of sodium currents in HEK-NaV1.8 cells. It counts as cell-based. Conditions: potency data either taken from inactivated or resting state, read-out: Potency category (human NaV1.8 IC50). An outline of the steps: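 Automated whole-cell patch clamp at room temperature on HEK cells expressing human NaV1.8, with 0.3% DMSO vehicle controls. State-dependent protocol from −120 mV tested resting (P1) and half-inactivated (P2, 4 s at V1/2) channels, plus 40-pulse trains at 10 and 20 Hz. Values after ~12 min compound exposure were normalised to baseline and corrected for vehicle run-down; IC50 from a 4-parameter logistic fit, taken from inactivated or resting state.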
In general terms: In patch-clamp work, channel activity is measured electrically.

A word on the IC50: it is the point on the concentration scale where inhibition reaches its midpoint.

T1 sequence (Q9Y5Y9 whole entry): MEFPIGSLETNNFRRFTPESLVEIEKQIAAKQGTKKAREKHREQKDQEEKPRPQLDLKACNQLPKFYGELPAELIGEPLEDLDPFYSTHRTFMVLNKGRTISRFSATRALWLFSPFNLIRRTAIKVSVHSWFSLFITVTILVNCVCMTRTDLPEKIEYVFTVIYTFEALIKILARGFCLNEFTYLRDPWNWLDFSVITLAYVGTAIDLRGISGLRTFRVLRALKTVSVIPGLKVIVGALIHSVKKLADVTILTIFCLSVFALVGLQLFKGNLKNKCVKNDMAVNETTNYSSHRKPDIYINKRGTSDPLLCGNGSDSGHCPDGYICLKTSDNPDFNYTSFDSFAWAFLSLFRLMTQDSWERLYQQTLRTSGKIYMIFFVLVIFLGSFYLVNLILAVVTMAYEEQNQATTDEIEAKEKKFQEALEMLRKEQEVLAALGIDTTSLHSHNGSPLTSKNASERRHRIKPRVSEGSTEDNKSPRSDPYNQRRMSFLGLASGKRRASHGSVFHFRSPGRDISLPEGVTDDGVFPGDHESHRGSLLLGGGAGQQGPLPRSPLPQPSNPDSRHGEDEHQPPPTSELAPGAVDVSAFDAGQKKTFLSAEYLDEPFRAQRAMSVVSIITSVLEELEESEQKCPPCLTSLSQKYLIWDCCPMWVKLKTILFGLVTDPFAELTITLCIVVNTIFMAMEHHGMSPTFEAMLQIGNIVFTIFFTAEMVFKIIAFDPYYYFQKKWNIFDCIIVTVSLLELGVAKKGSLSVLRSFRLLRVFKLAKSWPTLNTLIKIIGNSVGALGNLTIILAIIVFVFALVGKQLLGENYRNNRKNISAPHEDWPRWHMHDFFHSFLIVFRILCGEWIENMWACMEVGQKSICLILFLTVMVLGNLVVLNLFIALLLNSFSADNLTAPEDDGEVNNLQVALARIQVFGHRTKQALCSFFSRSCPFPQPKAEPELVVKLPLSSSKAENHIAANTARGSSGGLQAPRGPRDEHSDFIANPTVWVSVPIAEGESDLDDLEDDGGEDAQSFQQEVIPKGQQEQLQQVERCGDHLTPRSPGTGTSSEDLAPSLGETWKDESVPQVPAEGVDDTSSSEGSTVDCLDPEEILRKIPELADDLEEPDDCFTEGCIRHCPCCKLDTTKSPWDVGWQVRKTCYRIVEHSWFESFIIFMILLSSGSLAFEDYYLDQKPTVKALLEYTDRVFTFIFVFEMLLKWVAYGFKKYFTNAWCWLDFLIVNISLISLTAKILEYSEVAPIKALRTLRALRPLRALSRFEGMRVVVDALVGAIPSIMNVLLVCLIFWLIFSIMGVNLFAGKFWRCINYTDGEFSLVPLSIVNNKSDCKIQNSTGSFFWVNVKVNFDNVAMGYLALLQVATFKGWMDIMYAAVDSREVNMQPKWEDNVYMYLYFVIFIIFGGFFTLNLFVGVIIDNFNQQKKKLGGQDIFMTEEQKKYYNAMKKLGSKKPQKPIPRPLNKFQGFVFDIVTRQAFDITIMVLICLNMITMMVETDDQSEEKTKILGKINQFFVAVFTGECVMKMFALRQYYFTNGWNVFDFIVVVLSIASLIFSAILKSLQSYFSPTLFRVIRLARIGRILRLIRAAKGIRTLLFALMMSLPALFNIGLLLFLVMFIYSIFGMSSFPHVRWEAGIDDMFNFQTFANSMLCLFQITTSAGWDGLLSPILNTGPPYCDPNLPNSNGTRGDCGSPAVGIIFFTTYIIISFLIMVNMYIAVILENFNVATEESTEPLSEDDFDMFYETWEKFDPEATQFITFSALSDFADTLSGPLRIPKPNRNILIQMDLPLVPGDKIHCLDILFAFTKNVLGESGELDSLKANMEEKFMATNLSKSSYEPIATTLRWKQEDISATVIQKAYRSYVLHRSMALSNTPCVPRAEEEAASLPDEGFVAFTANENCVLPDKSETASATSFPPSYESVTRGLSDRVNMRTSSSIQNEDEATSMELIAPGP
T1 sequence (Q9NY72 23-215 partner): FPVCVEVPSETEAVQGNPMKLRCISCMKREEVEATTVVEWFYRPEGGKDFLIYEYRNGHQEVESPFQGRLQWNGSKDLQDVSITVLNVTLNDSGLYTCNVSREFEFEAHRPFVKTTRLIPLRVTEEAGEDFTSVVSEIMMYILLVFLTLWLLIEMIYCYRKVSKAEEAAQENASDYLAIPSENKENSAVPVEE

`Cc1c(C(C)(F)F)nn(CC2C[C@H]2C)c1C(=O)Nc1ccnc(S(N)(=O)=O)c1` (stereo partly shown) [SC-314, 3-(1,1-difluoroethyl)-4-methyl-1-((2-methyleyelopropyl)methyl)-N-(2-sulfamoylpyridin-4-yl)-lH-pyrazole-5-carboxamide]: the IC50 is no more than 100 nM.
For the compound `Cc1c(C(C)(F)F)nn(CC2(C(F)F)CC(F)(F)C2)c1C(=O)Nc1ccnc(S(N)(=O)=O)c1` [SC-316, 3-(1,1-difluoroethyl)-1-((1-(difluoromethyl)-3,3-difluorocyclobutyl)methyl)-4-methyl-N-(2-sulfamoylpyridin-4-yl)-1H-pyrazole-5-carboxamide], the IC50 was no more than 100 nM.
For `Cc1c(C(C)(F)F)nn(CC2(C)CCO2)c1C(=O)Nc1ccnc(S(N)(=O)=O)c1` (stereo not shown) [SC-317, 3-(1,1-difluoroethyl)-4-methyl-1-((2-methyloxetan-2-yl)methyl)-N-(2-sulfamoylpyridin-4-yl)-lH-pyrazole-5-carboxamide], the IC50 was in the range of 1000 to 10000 nM.
Under `Cc1c(OC(F)(F)F)nn(CC2CC(F)(F)C2)c1C(=O)Nc1ccnc(C(N)=O)c1` [SC-318, 4-(1-((3,3-difluorocyclobutyl)methyl)-4-methyl-3-(trifluoromethoxy)-1H-pyrazole-5-carboxamido)picolinamide] stands 100 to 1000 nM; under `Cc1c(C(F)(F)F)nn(CC2CCC(F)(F)CC2)c1C(=O)Nc1ccnc(S(N)(=O)=O)c1` [SC-320, 1-((4,4-difluorocyclohexyl)methyl)-4-methyl-N-(2-sulfamoylpyridin-4-yl)-3-(trifluoromethyl)-1H-pyrazole-5-carboxamide], no more than 100 nM.
Regarding `Cc1nn(CC2CCC(F)(F)CC2)c(C(=O)Nc2cnnc(C(N)=O)c2)c1C(F)(F)F` [SC-321, 5-(1-((4,4-difluorocyclohexyl)methyl)-3-methyl-4-(trifluoromethyl)-1H-pyrazole-5-carboxamido)pyridazine-3-carboxamide], the IC50 lay in the range of 100 to 1000 nM.
The result for `CS(=O)(=O)c1cc(NC(=O)c2c(OC(F)F)c(C3CC3)nn2CC2CCOCC2)ccn1` [SC-322, 3-cyclopropyl-4-(difluoromethoxy)-N-(2-(methylsulfonyl)pyridin-4-yl)-1-((tetrahydro-2H-pyran-4-yl)methyl)-1H-pyrazole-5-carboxamide] reads 1000 to 10000 nM; that for `Cc1c(OC(F)F)nn(CC2CC(F)(F)C2)c1C(=O)Nc1ccnc(S(C)(=O)=O)c1` [SC-323, 1-((3,3-difluorocyclobutyl)methyl)-3-(difluoromethoxy)-4-methyl-N-(2-(methylsulfonyl)pyridin-4-yl)-1H-pyrazole-5-carboxamide], 100 to 1000 nM; that for `NC(=O)c1cc(NC(=O)c2c(C(F)(F)F)c(C(F)F)nn2CC2CC(F)(F)C2)ccn1` [SC-324, 4-(1-((3,3-difluorocyclobutyl)methyl)-3-(difluoromethyl)-4-(trifluoromethyl)-1H-pyrazole-5-carboxamido)picolinamide], no more than 100 nM.
The result for `NC(=O)c1cc(NC(=O)c2c(C(F)(F)F)c(C(F)F)nn2CC2CCC(F)(F)C2)ccn1` (stereo not shown) [SC-325, 4-(1-((3,3-difluorocyclopentyl)methyl)-3-(difluoromethyl)-4-(trifluoromethyl)-1H-pyrazole-5-carboxamido)picolinamide] reads no more than 100 nM.
